# Laboratory results: patent US20220119868A1, “PROFILING RNA-SMALL MOLECULE BINDING SITES WITH OLIGONUCLEOTIDES” (priority 2018, published 2022)
# Tests used:
# Assay in all cases: In solution, fluorescence-based binding affinity assay
# [1] = target: RNA motif 5′GAU3′/3′C_A5′ (from RNA library C)
# Experimental: (§1) Affinity of Selected RNA Motif-Small Molecule Interactions. The affinity of exemplar compounds that have inherent fluorescence was measured. […] . Binding affinities were confirmed using a label-free method, biolayer interferometry.
# (§2) where n1 is the size of Population 1 (number of sequencing reads for a given RNA from RNA-seq analysis of the selected library), n2 is the size of Population 2 (number of sequencing reads for the same RNA from RNA-seq analysis of the starting library), p1 is the observed proportion of Population 1 (the number of reads for a given RNA from selected library/total number of reads), and p2 is the observed proportion for Population 2 (the number of reads for the same RNA in the starting library/total number of reads). Generation of Logos and DiffLogos: Zobs corresponding to the highest (enriched) 0.5% and lowest (discriminated against) 0.5% scores were analyzed to generate consensus sequences, or Logos. The resulting list of sequences were converted to position weight matrix (PWM) lists for each compound. “Enriched” and “discriminated” sequences were kept separate using JMP®, Version <13.2.1>. SAS Institute Inc., Cary, N.C., 1989-2007. The R package Difflogo,^16 which is part of Bioconductor, was utilized to create the sequence logos from PWM lists for each compound and visually compare the differences between them. Binding Affinity Measurements. Dissociation constants were determined using an in solution, fluorescence-based assay. […] Serial dilutions (1:2) of the small molecule were then completed in 1× Assay Buffer supplemented with 1 mM MgCl2. The solutions were incubated for 30 min at room temperature, transferred to a 96-well plate, and fluorescence intensity measured on a BioTek-FLx800 plate reader. The change in fluorescence intensity as a function of small molecule concentration was fit to a one site binding model per equation 3: […]
# (§3) Effect of compounds on HCV replication. […] Cytotoxicity assays. […] Oligonucleotide profiling of target engagement in vitro. […] Primers can be found in Table 4. […] Inhibition of kinases. […] . Figure S7C).
# [2] = target: RNA motif 5′UCUAU3′/3′ACCA5′ (from RNA library C)
# Experimental: as §1, §2, §3
# [3] = target: RNA motif 5′GCU3′/3′C_A5′ (from RNA library C)
# Experimental: as §1, §2, §3
# [4] = target: RNA motif 5′UGU3′/3′G_A5′ (from RNA library C)
# Experimental: as §1, §2, §3
# [5] = target: RNA motif 5′AAC3′/3′U_G5′ (from RNA library C)
# Experimental: as §1, §2, §3
# [6] = target: RNA motif 5′UCCAU3′/3′AUCA (non-binder)
# Experimental: as §1, §2, §3
# [7] = target: RNA motif 5′UCCUU3′/3′AUUA5′ (non-binder)
# Experimental: as §1, §2, §3
# [8] = target: RNA motif 5′GAG3′/3′C_C5′ (from RNA library C)
# Experimental: as §1, §2, §3
SMILES,Kd [1],Kd [2],Kd [3],Kd [4],Kd [5],Kd [6],Kd [7],Kd [8]
O=C(Nc1ccc(C2=NCCN2)cc1)c1cc(C(=O)Nc2ccc(C3=NCCN3)cc2)cc(C(=O)Nc2ccc(C3=NCCN3)cc2)c1 [Compound 8],600 ± 61 nM,5580 ± 440 nM,450 ± 47 nM,,,,,
O=C(Nc1cccc(NC(=O)Nc2cc(C(=O)Nc3ccc(C4=NCCN4)cc3)ccc2C(=O)Nc2ccc(C3=NCCN3)cc2)c1)Nc1cc(C(=O)Nc2ccc(C3=NCCN3)cc2)ccc1C(=O)Nc1ccc(C2=NCCN2)cc1 [Compound 7],,,,630 ± 36 nM,420 ± 41 nM,7200 ± 418 nM,2080 ± 300 nM,410 ± 26 nM
